Experimental findings from patent US9796706B2, “Inhibitors of Jun N-terminal kinase” (IMAGO PHARMACEUTICALS, INC., priority 2009, dated 2017) are described below.

Broadly, the IC50 is the midpoint of a concentration-inhibition curve. A low value points to greater potency.

Common to all, as to assay type: biochemical
What all share (conditions): procedures of Example 14 (TR-FRET)
A general note: TR-FRET usually uses a lanthanide donor and a delayed reading to cut background.

One assay deals with JNK1 (Homo sapiens (Human), UniProt P45983). Briefly: JNK1 TR-FRET kinase assay (Example 14). As for the experimental part: (§1) 14.3. Active JNK 1, 2 and 3 TR-FRET Assay
(§2) (1) Assay buffer #1 with 0.0025% Tween and 1 mM DTT was prepared using JNK buffer stock solution.
(§3) (2) Assay buffer #2 with 0.025% BSA was prepared using the assay buffer #1.
(§4) (3) Test compound solution preparation: 5× compound solution was prepared using assay buffer #1 with 5% DMSO. The compound solution (10 μl/well) was added to a 384-well plate (Corning, Cat No. 3654).
(§5) (4) aJNK1, 2 or 3 preparation: aJNK stock (100 μg/ml) at −80° C. was thawed on ice and an aJNK (1.6 ng/ml) solution was prepared using assay buffer #2. The aJNK solution (20 μl/well) was added to the plate and the plate was shaken. The enzyme was incubated with the compound at RT for 10 min. (5) ATP/substrate solution preparation: ATP and substrate stocks were thawed on ice. 2.5×ATP/substrate (e.g., 25 μM or 2.5 mM ATP/50 nM EPIW-1) was prepared using assay buffer #1. The ATP/substrate (20 μl/well) was added to the plate and the plate was shaken. The plate was incubated at RT for 15 min. Note: In an exemplary assay, the final ATP concentration was about 1 mM. (6) EDTA preparation: 30 mM EDTA was prepared using 0.5M EDTA stock and assay buffer #1. The EDTA (10 μl/well) was added to the plate to quench the enzyme reaction and the plate was shaken well. (7) Detection reagent preparation: Eu-63 and SA-XL stocks were thawed on ice. 4× Eu-63/SA-XL (2 nM Eu-63/9.4 nM SA-XL) was prepared using JNK detection buffer. The Eu-63/SA-XL solution (20 μl/well) was added to the plate and the plate was shaken. The plate was incubated at RT for 1 hr before reading the plate on LJL using ratiometric method named HTRF.
(§6) 14.4. Coupled JNK 1, 2 and 3 TR-FRET Assay
(§7) (1) Assay buffer with 0.0025% Tween, 0.01% BSA, and 1 mM DTT was prepared using JNK buffer stock solution.
(§8) (2) Test compound solution preparation: 5× compound solution, including EDTA background, was prepared using assay buffer with 5% DMSO. The compound solution (10 μl/well) was added to a 384-well plate (Corning, Cat No. 3654).
(§9) (3) uJNK1,2, or 3 activation reaction preparation: uJNK activation solution was prepared using assay buffer (1.6 ng/ml MKK4, 1.6 ng/ml MKK7, 16 ng/ml uJNK, and 20 uM ATP final). The uJNK activation solution (35 μl/well) was added to the plate, the plate was shaken, and the reaction mixture was incubated with compound at 30° C. for 60 min. (4) c-Jun substrate solution preparation: 50 nM EPIW-1, c-Jun peptide, was prepared using assay buffer (15 nM final). The EPIW-1 solution (15 μl/well) was added to the plate, the plate was shaken and incubated at 30° C. for 60 min. (5) EDTA preparation: 30 mM EDTA was prepared using 0.5M EDTA stock and assay buffer. The EDTA (10 μl/well) was added to the plate to quench the enzyme reaction and the plate was shaken well. (6) Detection reagent preparation: Eu-73 and SA-XL stocks were thawed on ice. 4× Eu-73/SA-XL (2 nM Eu-73/9.4 nM SA-XL) were prepared using JNK detection buffer. The Eu-73/SA-XL solution (20 μl/well) was added to the plate. The plate was shaken and incubated at RT for 1 hr before reading the plate on LJL using ratiometric method named HTRF.

In another assay the target is JNK3 (Homo sapiens (Human), UniProt P53779). Kind of assay: JNK3 TR-FRET kinase assay (Example 14). As for the experimental part: as §1, §2, §3, §4, §5, §6, §7, §8, §9
The target in another assay is JNK2 (Homo sapiens (Human), UniProt P45984). Briefly: JNK2 TR-FRET kinase assay (Example 14). As for the experimental part:
as §1, §2, §3, §4, §5, §6, §7, §8, §9

Sequence of JNK2 (P45984 whole entry, species assumed): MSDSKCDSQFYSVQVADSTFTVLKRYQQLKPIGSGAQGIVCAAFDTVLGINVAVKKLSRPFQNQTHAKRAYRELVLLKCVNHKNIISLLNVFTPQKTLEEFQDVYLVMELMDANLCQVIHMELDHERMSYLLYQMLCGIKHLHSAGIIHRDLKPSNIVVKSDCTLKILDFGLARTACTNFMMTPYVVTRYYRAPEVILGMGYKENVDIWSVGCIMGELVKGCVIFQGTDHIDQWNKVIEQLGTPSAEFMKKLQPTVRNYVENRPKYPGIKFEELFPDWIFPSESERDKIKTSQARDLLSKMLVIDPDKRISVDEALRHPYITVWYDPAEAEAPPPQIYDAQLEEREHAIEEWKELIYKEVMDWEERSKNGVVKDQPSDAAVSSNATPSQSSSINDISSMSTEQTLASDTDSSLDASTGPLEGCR
Sequence of JNK1 (P45983 other isoform, or with tags, fused parts or gaps isoform P45983-2, species assumed): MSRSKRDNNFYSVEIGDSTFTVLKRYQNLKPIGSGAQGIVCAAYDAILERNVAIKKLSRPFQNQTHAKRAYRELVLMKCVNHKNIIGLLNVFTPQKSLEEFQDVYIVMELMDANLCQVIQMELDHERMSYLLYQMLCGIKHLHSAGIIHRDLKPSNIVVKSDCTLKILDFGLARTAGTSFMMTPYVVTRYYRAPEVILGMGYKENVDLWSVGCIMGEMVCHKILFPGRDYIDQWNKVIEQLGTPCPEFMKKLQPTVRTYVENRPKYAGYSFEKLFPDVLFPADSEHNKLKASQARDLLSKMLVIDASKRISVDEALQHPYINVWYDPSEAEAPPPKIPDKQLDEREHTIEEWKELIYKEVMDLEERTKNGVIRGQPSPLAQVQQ
Sequence of JNK3 (P53779 whole entry, species assumed): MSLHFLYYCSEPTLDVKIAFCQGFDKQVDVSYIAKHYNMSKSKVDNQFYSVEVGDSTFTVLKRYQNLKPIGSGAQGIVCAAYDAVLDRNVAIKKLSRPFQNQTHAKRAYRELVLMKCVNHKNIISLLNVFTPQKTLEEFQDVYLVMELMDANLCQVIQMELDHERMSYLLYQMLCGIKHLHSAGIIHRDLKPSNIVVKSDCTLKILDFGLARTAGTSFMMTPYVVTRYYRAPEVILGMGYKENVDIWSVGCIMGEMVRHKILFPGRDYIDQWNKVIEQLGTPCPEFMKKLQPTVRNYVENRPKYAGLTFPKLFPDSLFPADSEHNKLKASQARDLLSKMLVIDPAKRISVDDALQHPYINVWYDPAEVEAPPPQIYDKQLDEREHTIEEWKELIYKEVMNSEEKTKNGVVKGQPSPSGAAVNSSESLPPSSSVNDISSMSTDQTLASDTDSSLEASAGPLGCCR

Take `O=C(Cn1c(=O)ccc2cc(C(F)(F)F)c(F)cc21)Nc1scc(Br)c1-c1ncn[nH]1` [N-(4-bromo-3-(1H-1,2,4-triazol-5-yl)thiophen-2-yl)-2-(7-fluoro-2-oxo-6-(trifluoromethyl)quinolin-1(2H)-yl)acetamide]: the IC50 on JNK1, at JNK3 and against JNK2 was below 0.1 µM throughout.

For `N#Cc1csc(NC(=O)Cc2cccc3cnccc23)c1-c1ncn[nH]1` [N-(4-cyano-3-(1H-1,2,4-triazol-5-yl)thiophen-2-yl)-2-(isoquinolin-5-yl)acetamide], the half-inhibitory concentration (IC50) at JNK1, at JNK3 and against JNK2 was below 0.1 µM in each case.

Take `CN(C)CCCn1cnc(-c2c(Cl)csc2NC(=O)Cn2c(=O)ccc3cc(C(F)(F)F)ccc32)n1` [N-(4-chloro-3-(1-(3-(dimethylamino)propyl)-1H-1,2,4-triazol-3-yl)thiophen-2-yl)-2-(2-oxo-6-(trifluoromethyl)quinolin-1(2H)-yl)acetamide]: the IC50 on JNK1, on JNK3 and against JNK2 was below 0.1 µM each time.

Turning to `Cc1nnc(-c2sccc2NC(=O)Cc2cccc3ccccc23)o1` [N-(2-(5-methyl-1,3,4-oxadiazol-2-yl)thiophen-3-yl)-2-(naphthalen-1-yl)acetamide], the IC50 on JNK1 is 0.1 to 10 µM; at JNK3, 0.1 to 10 µM; against JNK2, above 10 µM.

Take `O=C(Cc1ccc(OCCCN2CCCCC2)cc1)Nc1ccsc1-c1cscn1` [2-(4-(3-(piperidin-1-yl)propoxy)phenyl)-N-(2-(thiazol-4-yl)thiophen-3-yl)acetamide]: the IC50 against JNK1, against JNK3 and on JNK2 was 0.1 to 10 µM each time.

As to `N#Cc1ccc2c(ccc(=O)n2CC(=O)Nc2scc(Br)c2-c2ncn[nH]2)c1` [N-(4-bromo-3-(1H-1,2,4-triazol-5-yl)thiophen-2-yl)-2-(6-cyano-2-oxoquinolin-1(2H)-yl)acetamide], the IC50 against JNK1, on JNK3 and against JNK2 was below 0.1 µM each time.

`O=C(Cc1cccc2ncccc12)Nc1ccsc1-c1nnc[nH]1` [N-(2-(1H-1,2,4-triazol-5-yl)thiophen-3-yl)-2-(quinolin-5-yl)acetamide]: the half-maximal inhibitory concentration (IC50) at JNK1, against JNK3 and at JNK2 was 0.1 to 10 µM each time.

On to `N#Cc1csc(NC(=O)Cn2c(=O)ccc3cc(C(F)(F)F)ccc32)c1-n1nnc2ccccc21` [N-(3-(1H-benzo[d][1,2,3]triazol-1-yl)-4-cyanothiophen-2-yl)-2-(2-oxo-6-(trifluoromethyl)quinolin-1(2H)-yl)acetamide], for which the 50% inhibitory concentration (IC50) at JNK1, against JNK3 and against JNK2 was 0.1 to 10 µM in each case.

As for `O=C(CN1C(=O)C(F)(F)c2ccccc21)Nc1scc(Br)c1-c1nnc[nH]1` [N-(4-bromo-3-(4H-1,2,4-triazol-3-yl)thiophen-2-yl)-2-(3,3-difluoro-2-oxoindolin-1-yl)acetamide], the IC50 is below 0.1 µM against JNK1, 0.1 to 10 µM against JNK3 and 0.1 to 10 µM against JNK2.

Regarding `N#Cc1csc(NC(=O)Cn2c(=O)ccc3cc(C(F)(F)F)ccc32)c1-n1nccn1` [N-(4-cyano-3-(2H-1,2,3-triazol-2-yl)thiophen-2-yl)-2-(2-oxo-6-(trifluoromethyl)quinolin-1(2H)-yl)acetamide], the IC50 against JNK1, on JNK3 and at JNK2 was below 0.1 µM each time.

As to `O=C(Cn1c(=O)ccc2cc(Br)ccc21)Nc1scc(Br)c1-c1nc[nH]n1` [2-(6-bromo-2-oxoquinolin-1(2H)-yl)-N-(4-bromo-3-(1H-1,2,4-triazol-3-yl)thiophen-2-yl)acetamide], the concentration for half-maximal inhibition (IC50) at JNK1, against JNK3 and against JNK2 was below 0.1 µM in each case.

As to `O=C(Cc1cccc2cnccc12)Nc1scnc1-c1cnccn1` [2-(isoquinolin-5-yl)-N-(4-(pyrazin-2-yl)thiazol-5-yl)acetamide], the IC50 at JNK1, against JNK3 and against JNK2 was 0.1 to 10 µM each time.

`Cc1cnc(-c2sccc2NC(=O)Cc2cccc3cnccc23)s1` [2-(isoquinolin-5-yl)-N-(2-(5-methylthiazol-2-yl)thiophen-3-yl)acetamide]: the IC50 against JNK1, at JNK3 and at JNK2 was 0.1 to 10 µM in each case.

For the compound `Cc1csc(NC(=O)Cc2cccc3ncccc23)c1-c1ncn[nH]1` [N-(4-methyl-3-(1H-1,2,4-triazol-5-yl)thiophen-2-yl)-2-(quinolin-5-yl)acetamide], the IC50 at JNK2 was in the range of 0.1 to 10 µM.

For `O=C(Cc1cccc2cccnc12)Nc1scc(Br)c1-c1ncn[nH]1` [N-(4-bromo-3-(1H-1,2,4-triazol-5-yl)thiophen-2-yl)-2-(quinolin-8-yl)acetamide], the IC50 against JNK3 and at JNK2 was 0.1 to 10 µM throughout.

`O=C(Cc1cccc2ccccc12)Nc1ccsc1-c1cc[nH]n1` [N-(2-(1H-pyrazol-3-yl)thiophen-3-yl)-2-(naphthalen-1-yl)acetamide]: at JNK2, the IC50 is above 50 µM.

With `Cc1nnc(-c2c(C)csc2NC(=O)Cc2ccc(-c3ccncc3)cc2)[nH]1` [N-(4-methyl-3-(5-methyl-4H-1,2,4-triazol-3-yl)thiophen-2-yl)-2-(4-(pyridin-4-yl)phenyl)acetamide], the IC50 against JNK3 was in the range of 0.1 to 10 µM.

Compound `COc1ccc(CC(=O)Nc2ccsc2-c2nc(N)n[nH]2)cc1` [N-(2-(3-amino-1H-1,2,4-triazol-5-yl)thiophen-3-yl)-2-(4-methoxyphenyl)acetamide] showed an IC50 on JNK2 of 0.1 to 10 µM.

`COc1ccc(CC(=O)Nc2ccsc2-c2nc(C)n[nH]2)cc1` [2-(4-methoxyphenyl)-N-(2-(3-methyl-1H-1,2,4-triazol-5-yl)thiophen-3-yl)acetamide]: at JNK2, the 50% inhibitory concentration (IC50) lay within 0.1 to 10 µM.

On JNK2, `O=C(Cc1ccc2c(c1)OCCO2)Nc1ccsc1-c1ncn[nH]1` [N-(2-(1H-1,2,4-triazol-5-yl)thiophen-3-yl)-2-(2,3-dihydrobenzo[b][1,4]dioxin-6-yl)acetamide] gave an IC50 of 0.1 to 10 µM.

On JNK2, `Cc1noc(-c2sccc2NC(=O)Cc2cccc3ccccc23)n1` [N-(2-(3-methyl-1,2,4-oxadiazol-5-yl)thiophen-3-yl)-2-(naphthalen-1-yl)acetamide] came in with an IC50 above 50 µM.

Compound `Cc1n[nH]c(-c2sccc2NC(=O)Cc2ccc(N3CCCC3=O)cc2)n1` [N-(2-(3-methyl-1H-1,2,4-triazol-5-yl)thiophen-3-yl)-2-(4-(2-oxopyrrolidin-1-yl)phenyl)acetamide] had a half-maximal inhibitory concentration (IC50) at JNK2 of 0.1 to 10 µM.

Take `Cc1csc(NC(=O)CN2C(=O)CCc3ccccc32)c1-c1ncn[nH]1` [N-(4-methyl-3-(1H-1,2,4-triazol-5-yl)thiophen-2-yl)-2-(2-oxo-3,4-dihydroquinolin-1(2H)-yl)acetamide]: the IC50 against JNK1 and at JNK3 was below 0.1 µM each time.

In turn, `COc1ccc(CC(=O)Nc2sccc2-c2nn[nH]n2)cc1` [N-(3-(2H-tetrazol-5-yl)thiophen-2-yl)-2-(4-methoxyphenyl)-acetamide] came in with an IC50 on JNK2 above 50 µM.

The compound `Cc1cc(-c2sccc2NC(=O)Cc2cccc3ccccc23)n[nH]1` [N-(2-(5-methyl-1H-pyrazol-3-yl)thiophen-3-yl)-2-(naphthalen-1-yl)acetamide] came in with an IC50 on JNK2 above 50 µM.

`COc1ccc(CC(=O)Nc2ccsc2-c2ncco2)cc1` [2-(4-methoxyphenyl)-N-(2-(oxazol-2-yl)thiophen-3-yl)acetamide] showed an IC50 against JNK2 above 10 µM.

As for `Cn1ncnc1-c1ncsc1NC(=O)Cc1cccc2cnccc12` [2-(isoquinolin-5-yl)-N-(4-(1-methyl-1H-1,2,4-triazol-5-yl)thiazol-5-yl)acetamide], the IC50 against JNK2 is 0.1 to 10 µM.

In turn, `O=C(Cc1cccc2ccccc12)Nc1ccsc1-c1ccccn1` [2-(2-pyridyl)-3-(1-naphthylacetylamino)thiophene] gave an IC50 at JNK3 of 0.1 to 10 µM.
